The pEC50 is −log10 of the EC50, conventionally taken in molar units.

pEC50: −log10 of the molar value. Active and inactive are the calls of the source. No cut-off for these calls is given here.

One series deals with HepG2. As to the kind of experiment: Cytotoxicity against human HepG2 cells assessed as reduction in cell viability at 50 uM after 24 hrs by MTT assay. The class given is cell-based. Particulars: hepg2, 24 h. On the technique in general: Tetrazolium dyes change colour on reduction, which living cells bring about.
Series [1] deals with Plasmodium falciparum 3D7. Description: Inhibition of P-type cation ATPase ATP4 in trophozoite stage of Plasmodium falciparum 3D7 infected in human erythrocytes assessed as swelling of intraerythrocytic parasites by measuring diameter of parasite at 50 uM after 4 hrs by sodium green dye based microscopic analysis (reference value: 3.5 micrometer). It is filed as cell-based.

For series [2], the system named is Plasmodium falciparum. As to the kind of experiment: Antiplasmodial activity against late trophozoite stage of Plasmodium falciparum 3D7 infected in human erythrocytes measured after 46 hrs by ethidium bromide staining based flow cytometric analysis. The class given is functional, organism-based. The note with it: for pEC50: 3D7, 46 h. On the technique in general: In flow cytometry, cells or beads pass a laser one at a time.

In series [3] the test system is Plasmodium falciparum. Description: Antiplasmodial activity against late trophozoite stage of Plasmodium falciparum 3D7 infected in human erythrocytes measured after 46 hrs in presence of graphene oxide 2 by ethidium bromide staining based flow cytometric analysis. The class given is functional, organism-based. Particulars: 3D7, 46 h.
The test system of series [4] is Plasmodium falciparum. As to the kind of experiment: Growth inhibition of schizont stage Plasmodium falciparum 3D7 infected in human erythrocytes at 10 uM after 46 hrs by ethidium bromide staining based flow cytometric analysis relative to control. The class given is functional. The note with it: 3D7, 46 h, read-out: GI.
Series [5] has as its system Plasmodium falciparum. Description: Antiplasmodial activity against late trophozoite stage of Plasmodium falciparum 3D7 infected in human erythrocytes measured after 46 hrs in presence of graphene oxide 1 by ethidium bromide staining based flow cytometric analysis. It is filed as functional, organism-based. Particulars: 3D7, 46 h.
The test system of series [6] is Plasmodium falciparum 3D7. Description: Inhibition of P-type cation ATPase ATP4 in trophozoite stage of Plasmodium falciparum 3D7 infected in human erythrocytes assessed as increase in Na+/- levels at 50 uM by sodium green dye based microscopic analysis. The class given is cell-based.
The test system of series [7] is Plasmodium falciparum. Description: Induction of mitochondrial membrane potential loss in trophozoite stage of Plasmodium falciparum 3D7 infected in human erythrocytes assessed as decrease in JC1 red to JC1 green ratio at 50 uM by JC1 staining based microscopic analysis. It is filed as functional, organism-based.
The subject of series [8] is Plasmodium falciparum 3D7. As to the kind of experiment: Inhibition of P-type cation ATPase ATP4 in trophozoite stage of Plasmodium falciparum 3D7 infected in human erythrocytes assessed as swelling of intraerythrocytic parasites by measuring diameter of parasitized RBC at 50 uM after 4 hrs by sodium green dye based microscopic analysis (reference value: 5.03 micrometer). The class given is cell-based.

In series [9] the test system is Plasmodium falciparum. Description: Ratio of EC50 for antiplasmodial activity against late trophozoite stage of Plasmodium falciparum 3D7 infected in human erythrocytes to EC50 for antiplasmodial activity against late trophozoite stage of Plasmodium falciparum 3D7 infected in human erythrocytes in presence of graphene oxide 2. The class given is functional.
The test system of series [10] is Plasmodium falciparum. Description: Growth inhibition of schizont stage Plasmodium falciparum 3D7 infected in human erythrocytes at 50 uM after 46 hrs by ethidium bromide staining based flow cytometric analysis relative to control. The class given is functional. The note with it: 3D7, 46 h, read-out: GI.

As to `C/C=C/c1ccc(O)c(OC)c1`, the Activity entry with HepG2 was “Non-Toxic”.
On the same count and under the same terms, the same measure for `C=CCc1ccc(O)c(OC)c1` [EUGENOL]: “Non-Toxic”.
Regarding `C/C=C/c1cc2c(c(OC)c1)OCN(Cc1ccco1)C2`, the Activity is 4.4 µm in series [1], “Dose-dependent effect” with Plasmodium falciparum [2], “Non-Toxic” with HepG2 and 6.3 µm in [8]. Also, the negative logarithm of the EC50 (pEC50) in the series with Plasmodium falciparum [2] is 4.76; in the series with Plasmodium falciparum [3], 6.31; with Plasmodium falciparum [5] it was 5.14. Further, the inhibition of growth at 10 µM in the series with Plasmodium falciparum [4] came out at 14.9%. The inhibition result in series [6] is “Active”. Moreover, the result in the series on Plasmodium falciparum [7] was Active. Also, the “Ratio EC50” value in the series with Plasmodium falciparum [9] worked out at 36. Further, the inhibition of growth at 50 µM with Plasmodium falciparum [10] worked out at 73%.
Consider `C=CCc1cc2c(c(OC)c1)OCN(Cc1ccco1)C2`, for which, in the series with Plasmodium falciparum [2], the Activity entry was “Dose-dependent effect” and the pEC50 is 4.66. In addition, in the series with HepG2, the Activity entry is “Non-Toxic”. In the series with Plasmodium falciparum [4], the inhibition of growth at 10 µM came to 4.7%. In addition, the inhibition entry in series [6] is “Active”. For the same molecule, in the series with Plasmodium falciparum [7], the result was Active. Also, the inhibition of growth at 50 µM with Plasmodium falciparum [10] was 58.5%.

These data come from ChEMBL document CHEMBL4118116, “Benzoxazine derivatives of phytophenols show anti-plasmodial activity via sodium homeostasis disruption” (Bioorg Med Chem Lett, 2018).
